{"source": "patent US9861689B2", "about": "“Vaccination with immuno-isolated cells producing an immunomodulator” (MaxiVAX SA, priority 2015, dated 2018)", "key": {"[1]": {"system": "STAT5 A/B [pTyr694/699]", "assay": "LanthaScreen STAT5 TF-1 Activator Screen, GM-CSF Stimulation", "assay_type": "cell-based", "conditions": "cell supernatant", "method": "A functional cell-based assay was performed in order to determine the biological activity of the GM-CSF produced by the MVX-1 cell line. Two samples of the cell supernatant containing the produced GM-CSF were tested in duplicate using the LanthaScreen™ Cellular Assay (ThermoFisher Scientific), which uses time-resolved resonance energy transfer (TR-FRET) between a terbium-labeled phosphorylation-site specific antibody (PSSA) and a green fluorescent protein (GFP fusion of a particular kinase substrate to provide an assay readout that is ratiometric, robust, and amenable to high-throughput screening (HTS) applications. The use of a GFP fusion of the target along with a single detection antibody simplifies the assay protocol, eliminates the need for beads or additional reagents, and simplifies the assay relative to other two-antibody “sandwich” approaches.\n1. 32 μL of cells diluted in Assay Media to appropriate cell density are added to the assay plate. […]\n4. The assay plate is incubated at 37° C./5% CO2 in a humidified incubator for a pre-determined length of time (cell line/assay specific).\n5. Cells are lysed by the addition of lysis buffer with a pre-determined concentration of Tb-labeled Ab (assay specific).\n6. The assay plates are incubated in the dark at room temperature for a pre-determined length of time (assay specific).\n7. Read plate on a fluorescence plate reader. […]"}, "[2]": {"system": "STAT5 A/B [pTyr694/699]", "conditions": "STAT5 TF-1 cell line, inhibitor mode, GM-CSF stimulation; representative value; cited from earlier work"}, "[3]": {"system": "STAT5 A/B [pTyr694/699]", "conditions": "STAT5 TF-1 cell line, activator mode; representative value; cited from earlier work"}}, "note": "pEC50, pIC50: −log10 of the molar value."}
{"substance": "GM-CSF produced by the MVX-1 cell line: huGM-CSF in cell supernatant of the genetically modified MVX-1 cell line", "values": [{"measurement": "results of the functional cell-based assay", "setting": "[1]; two samples in duplicate (FIGS. 7A-D)", "result": "all positive"}, {"measurement": "biological activity compared with commercially available GM-CSF", "setting": "[1]; two samples in duplicate, within the limitations of the assay", "result": "equivalent to commercially available GM-CSF"}]}
{"substance": "JAK Inhibitor I", "values": [{"measurement": "pIC50", "setting": "[2]", "result": 7.43}]}
{"substance": "granulocyte macrophage-colony stimulating factor [GM-CSF]", "values": [{"measurement": "pEC50", "setting": "[3]", "result": 11.52}]}
